Source: US20030216413A1, “Catecholamine pharmaceutical compositions and methods” (priority 2000, published 2003)
Structures can show the parent of a compound that is named as a salt.

Key:
[1] = daily injections of 1 mg/kg for seven days; cited from earlier work
[2] = Treatment of a patient with asthma (Examples 1-3)
Procedure: A patient presents with asthma complicated by degenerative heart disease and has variously used 0.25% or 1% isoproterenol aerosols, 0.10-0.20 mg epinephrine-bitartrate inhalers, and 90 μg albuterol every day at 4-6 hour intervals. […] The subject is administered an aerosol composition comprising 0.075% isoproterenol and 1.0% ascorbic acid.
A patient presents with asthma and has previously used 90 μg albuterol every day at 4-6 hour intervals. […] The subject is administered composition comprising 50 μg albuterol and […] morphine sulfate.
A patient presents with asthma and has previously used a 0.20 mg/dose epinephrine bitartrate inhaler every day at 6 hour intervals. The subject is administered a composition delivering a unit dose comprising 0.03 mg epinephrine bitatrate and 0.2 mg EDTA from a conventional inhaler.

[3] = 1:100,000 sterile aqueous solution; cited from earlier work
[4] = 1:1000 or 1:10,000 epinephrine in sterile aqueous solution; cited from earlier work
[5] = 1:1000 to 1:10,000 solutions; cited from earlier work

C[C@H](N)Cc1ccccc1 [D-amphetamine]
side effects of the typical treatment [1]: Side effects often result

CC(C)(C)NCC(O)c1ccc(O)c(CO)c1 (centres unmarked) [albuterol]
adverse side effects ([2]; human, in vivo): unacceptable side effects | control of asthma / symptom relief ([2]; patient with asthma): not well controlled

CNC[C@H](O)c1ccc(O)c(O)c1 [epinephrine hydrochloride]
duration of beneficial effect of conventional treatment [3]: about 15 minutes

CNC[C@H](O)c1ccc(O)c(O)c1 [epinephrine-bitartrate]
adverse side effects ([2]; human, in vivo): unacceptable side effects

CNC[C@H](O)c1ccc(O)c(O)c1 [epinephrine]
side effects of conventional formulations [4]: fear, anxiety, restlessness, and sleeplessness, dizziness and palpitations | duration of action of conventional treatment [5]: only a few minutes

CC(C)NCC(O)c1ccc(O)c(O)c1 (centres unmarked) [isoproterenol]
adverse side effects ([2]; patient with asthma): unacceptable side effects
